The experiment concerns the target T1, Human KLK1 (Homo sapiens, UniProt P06870).
T1 construct: purchased Callbiochem (Calbiochem)
In words: Determination of the IC50 for KLK1 (fluorogenic substrate H-DVal-Leu-Arg-AFC). It counts as biochemical. Conditions: 37° C. In short, it runs like this: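 Human KLK1 incubated at 37 °C with fluorogenic substrate H-DVal-Leu-Arg-AFC and a range of test compound concentrations. Residual activity was taken as initial reaction rate from absorbance change at 410 nm, and the IC50 derived from it.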

The values that follow come from US20100076015A1, “Aminopyridine Derivatives” (VANTIA LIMITED, priority 2008, published 2010).

Usually IC50 stands for the point on the concentration scale where inhibition reaches its midpoint.

T1 sequence (P06870 25-262): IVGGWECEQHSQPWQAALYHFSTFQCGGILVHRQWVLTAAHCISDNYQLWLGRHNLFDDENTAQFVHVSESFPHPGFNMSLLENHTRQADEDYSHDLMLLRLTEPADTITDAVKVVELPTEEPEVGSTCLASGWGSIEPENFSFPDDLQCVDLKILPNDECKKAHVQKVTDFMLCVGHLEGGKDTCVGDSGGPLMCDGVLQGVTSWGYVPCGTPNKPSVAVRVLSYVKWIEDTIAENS

`COc1ccc2[nH]c(C(=O)N[C@@H](Cc3ccc(Cl)c(Cl)c3)C(=O)NCc3ccc(N)nc3C)cc2c1` [Example 321, 5-Methoxy-1H-indole-2-carboxylic acid [(S)-1-[(6-amino-2-methyl-pyridin-3-ylmethyl)-carbamoyl]-2-(3,4-dichloro-phenyl)-ethyl]-amide]: the concentration for half-maximal inhibition (IC50) worked out at 85.4 nM.

`CC(C)N(C)[C@@H](C)C(=O)N[C@@H](C(=O)NCc1ccc(N)nc1)C(C1CCCCC1)C1CCCCC1` [Example 433, (S)—N-{(R)-1-[(6-Amino-pyridin-3-ylmethyl)-carbamoyl]-2,2-dicyclohexyl-ethyl}-2-(isopropyl-methyl-amino)-propionamide] registered an IC50 of 100 nM.

In turn, `CNCC(=O)N[C@@H](CC1CCCC2CCCCC21)C(=O)NCc1ccc(N)nc1` (stereo partly drawn) [Example 19, (S)—N-(6-Amino-pyridin-3-ylmethyl)-3-(decahydro-naphthalen-1-yl)-2-(2-methylamino-acetylamino)-propionamide] had a half-inhibitory concentration (IC50) of 21.6 nM.

`CC(C)N(C)[C@@H](C)C(=O)N[C@@H](C(=O)NCc1ccc(N)nc1)C(O)C1CCCCC1` (stereo partly drawn) [Example 435, (S)—N-{(R)-1-[(6-Amino-pyridin-3-ylmethyl)-carbamoyl]-2-cyclohexyl-2-hydroxy-ethyl}-2-(isopropyl-methyl-amino)-propionamide] had an IC50 of 5 nM.

`CCCN1CCC[C@@H]1C(=O)N[C@@H](Cc1ccc(F)c(F)c1)C(=O)NCc1ccc(N)nc1` [Example 132, (R)-1-Propyl-pyrrolidine-2-carboxylic acid [(S)-1-[(6-amino-pyridin-3-ylmethyl)-carbamoyl]-2-(3,4-difluoro-phenyl)-ethyl]-amide] had an IC50 of 6.4 nM.

Consider `C[C@@H](C(=O)N[C@@H](Cc1ccc(Cl)c(Cl)c1)C(=O)NCc1ccc(N)nc1)N1CCCCC1` [Example 403, (S)—N-[(S)-1-[(6-Amino-pyridin-3-ylmethyl)-carbamoyl]-2-(3,4-dichloro-phenyl)-ethyl]-2-piperidin-1-yl-propionamide], for which the IC50 amounted to 1.1 nM.

The compound `CC(C)[C@H](C(=O)N[C@@H](Cc1ccc(Cl)c(Cl)c1)C(=O)NCc1ccc(N)nc1)N(C)C` [Example 399, (R)—N-[(S)-1-[(6-Amino-pyridin-3-ylmethyl)-carbamoyl]-2-(3,4-dichloro-phenyl)-ethyl]-2-dimethylamino-3-methyl-butyramide] showed an IC50 of 0.74 nM.

Compound `CCCN(C)[C@@H](C)C(=O)N[C@@H](Cc1ccc(F)c(F)c1)C(=O)NCc1ccc(N)nc1` [Example 346, (S)—N-[(S)-1-[(6-Amino-pyridin-3-ylmethyl)-carbamoyl]-2-(3,4-difluoro-phenyl)-ethyl]-2-(methyl-propyl-amino)-propionamide] had an IC50 of 21.3 nM.

In turn, `Cc1nc(N)ccc1CNC(=O)[C@H](Cc1ccc(Cl)c(Cl)c1)NC(=O)[C@H](N)CC1CCCCC1` [Example 200, (R)-2-Amino-N-[(S)-1-[(6-amino-2-methyl-pyridin-3-ylmethyl)-carbamoyl]-2-(3,4-dichloro-phenyl)-ethyl]-3-cyclohexyl-propionamide] came in with a 50% inhibitory concentration (IC50) of 22.1 nM.

`Cc1ccc(-c2ccc(C(=O)N[C@@H](Cc3ccc(F)c(F)c3)C(=O)NCc3ccc(N)nc3)[nH]2)cc1` [Example 294, 5-p-Tolyl-1H-pyrrole-2-carboxylic acid [(S)-1-[(6-amino-pyridin-3-ylmethyl)-carbamoyl]-2-(3,4-difluoro-phenyl)-ethyl]-amide] returned an IC50 of 35.6 nM.

With `Nc1ccc(CNC(=O)[C@H](Cc2ccc(Cl)c(Cl)c2)NC(=O)[C@H]2C=CCN2)cn1` [Example 65, (R)-2,5-Dihydro-1H-pyrrole-2-carboxylic acid [(S)-1-[(6-amino-pyridin-3-ylmethyl)-carbamoyl]-2-(3,4-dichloro-phenyl)-ethyl]-amide], the IC50 was 2.7 nM.

Take `Nc1ccc(CNC(=O)[C@H](Cc2cccc(C(F)(F)F)c2)NC(=O)CN2CCCCC2)cn1` [Example 420, (S)—N-(6-Amino-pyridin-3-ylmethyl)-2-(2-piperidin-1-yl-acetylamino)-3-(3-trifluoromethyl-phenyl)-propionamide]: the IC50 is 117 nM.

Regarding `CCN(CC)CC(=O)N[C@@H](Cc1ccc(F)cc1)C(=O)NCc1ccc(N)nc1` [Example 380, (S)—N-(6-Amino-pyridin-3-ylmethyl)-2-(2-diethylamino-acetylamino)-3-(4-fluoro-phenyl)-propionamide], 13.9 nM corresponded to half-maximal inhibition (IC50).

`CCN(CC)C(C)C(=O)N(C)C(CC1CCCCC1)C(=O)NCc1ccc(N)nc1` [Example 438, S)—N-{(S)-1-[(6-Amino-pyridin-3-ylmethyl)-carbamoyl]-2-cyclohexyl-ethyl}-2-diethylamino-N-methyl-propionamide] returned an IC50 of 5.4 nM.

As to `CCC(C)[C@@H](NC)C(=O)N[C@@H](Cc1csc2ccccc12)C(=O)NCc1ccc(N)nc1` (stereo partly drawn) [Example 51, (R)-3-Methyl-2-methylamino-pentanoic acid {(S)-1-[(6-amino-pyridin-3-ylmethyl)-carbamoyl]-2-benzo[b]thiophen-3-yl-ethyl}-amide], inhibition was half-maximal at 0.26 nM (IC50).

Compound `CC(C)N(C)[C@@H](CO)C(=O)N[C@@H](Cc1ccc(F)c(F)c1)C(=O)NCc1ccc(N)nc1` [Example 360, (S)—N-[(S)-1-[(6-Amino-pyridin-3-ylmethyl)-carbamoyl]-2-(3,4-difluoro-phenyl)-ethyl]-3-hydroxy-2-(isopropyl-methyl-amino)-propionamide] came in with an IC50 of 20.2 nM.

`CC(C)(C)[C@H](N)C(=O)N[C@@H](C(=O)NCc1ccc(N)nc1)C(C1CCCCC1)C1CCCCC1` [Example 217, (S)-2-Amino-N-{(R)-1-[(6-amino-pyridin-3-ylmethyl)-carbamoyl]-2,2-dicyclohexyl-ethyl}-3,3-dimethyl-butyramide] yielded an IC50 of 29.3 nM.

`CCCN(CCC)[C@@H](C)C(=O)N[C@@H](CC1CCCCC1)C(=O)NCc1ccc(N)nc1` [Example 385, (S)—N-{(S)-1-[(6-Amino-pyridin-3-ylmethyl)-carbamoyl]-2-cyclohexyl-ethyl}-2-dipropylaminopropionamide] had an IC50 of 107 nM.

The compound `CCN(C)[C@@H](CO)C(=O)N[C@@H](CC1CCCCC1)C(=O)NCc1ccc(N)nc1` [Example 387, (S)—N-{(S)-1-[(6-Amino-pyridin-3-ylmethyl)-carbamoyl]-2-cyclohexyl-ethyl}-2-(ethyl-methyl-amino)-3-hydroxy-propionamide] had an IC50 of 170 nM.

Compound `COc1ccc(C[C@H](NC(=O)c2cc3ccccc3[nH]2)C(=O)NCc2ccc(N)nc2)cc1` [Example 334, 1H-Indole-2-carboxylic acid [(S)-1-[(6-amino-pyridin-3-ylmethyl)-carbamoyl]-2-(4-methoxy-phenyl)-ethyl]-amide] gave an IC50 of 235 nM.

The compound `COc1ccc(CN(C)CC(=O)N[C@@H](Cc2ccc(F)c(F)c2)C(=O)NCc2ccc(N)nc2)cc1` [Example 166, (S)—N-(6-Amino-pyridin-3-ylmethyl)-3-(3,4-difluoro-phenyl)-2-{2-[(4-methoxy-benzyl)-methyl-amino]-acetylamino}-propionamide] showed a half-inhibitory concentration (IC50) of 726 nM.

In turn, `CN(CC(=O)N[C@@H](Cc1ccc(F)c(F)c1)C(=O)NCc1ccc(N)nc1)Cc1ccccc1Cl` [Example 165, (S)—N-(6-Amino-pyridin-3-ylmethyl)-2-{2-[(2-chloro-benzyl)-methyl-amino]-acetylamino}-3-(3,4-difluoro-phenyl)-propionamide] had an IC50 of 83.5 nM.

With `CC1CCCC(C)N1CC(=O)N[C@@H](CC1CCCCC1)C(=O)NCc1ccc(N)nc1` (stereo partly drawn) [Example 392, (S)—N-(6-Amino-pyridin-3-ylmethyl)-3-cyclohexyl-2-[2-(2,6-dimethyl-piperidin-1-yl)-acetylamino]-propionamide], the IC50 turned out to be 47.2 nM.

The compound `Nc1ccc(CNC(=O)[C@H](Cc2ccc(Cl)c(Cl)c2)NC(=O)[C@H]2CC(F)(F)CN2)cn1` [Example 66, (R)-4,4-Difluoro-pyrrolidine-2-carboxylic acid [(S)-1-[(6-amino-pyridin-3-ylmethyl)-carbamoyl]-2-(3,4-dichloro-phenyl)-ethyl]-amide] displayed an IC50 of 20.7 nM.

In turn, `CC(C)N1CCCC[C@@H]1C(=O)N[C@@H](Cc1ccc(F)cc1)C(=O)NCc1ccc(N)nc1` [Example 147, (R)-1-Isopropyl-piperidine-2-carboxylic acid [(S)-1-[(6-amino-pyridin-3-ylmethyl)-carbamoyl]-2-(4-fluoro-phenyl)-ethyl]-amide] displayed an IC50 of 49.6 nM.

Consider `Cc1cc[nH]c1C(=O)N[C@@H](Cc1cc(F)cc(F)c1)C(=O)NCc1ccc(N)nc1` [Example 270, 3-Methyl-1H-pyrrole-2-carboxylic acid [(S)-1-[(6-amino-pyridin-3-ylmethyl)-carbamoyl]-2-(3,5-difluoro-phenyl)-ethyl]-amide], for which the IC50 is 20.9 nM.

Take `Cc1cc[nH]c1C(=O)N[C@@H](CC1CCCCC1)C(=O)NCc1ccc(N)nc1` [Example 273, 3-Methyl-1H-pyrrole-2-carboxylic acid {(S)-1-[(6-amino-pyridin-3-ylmethyl)-carbamoyl]-2-cyclohexyl-ethyl}-amide]: the 50% inhibitory concentration (IC50) is 375 nM.

Compound `Cc1cc(C)c(C(=O)N[C@@H](Cc2c(F)c(F)c(F)c(F)c2F)C(=O)NCc2ccc(N)nc2)[nH]1` [Example 251, 3,5-Dimethyl-1H-pyrrole-2-carboxylic acid {(S)-1-[(6-amino-pyridin-3-ylmethyl)-carbamoyl]-2-pentafluorophenyl-ethyl}-amide] had an IC50 of 128 nM.

With `Nc1ccc(CNC(=O)[C@H](Cc2cccc(C(F)(F)F)c2)NC(=O)c2cc3ccccc3[nH]2)cn1` [Example 307, 1H-Indole-2-carboxylic acid [(S)-1-[(6-amino-pyridin-3-ylmethyl)-carbamoyl]-2-(3-trifluoromethyl-phenyl)-ethyl]-amide], inhibition was half-maximal at 22 nM (IC50).

`CN(C)[C@H](Cc1ccccc1)C(=O)N[C@@H](CC1CCCC2CCCCC21)C(=O)NCc1ccc(N)nc1` (stereo partly drawn) [Example 397, (R)—N-[(S)-1-[(6-Amino-pyridin-3-ylmethyl)-carbamoyl]-2-(decahydro-naphthalen-1-yl)-ethyl]-2-dimethylamino-3-phenyl-propionamide] returned an IC50 of 44.2 nM.
